In patent US7928238B2, “1,2,3,4-tetrahydro-quinoline derivatives as CETP inhibitors” (Janssen Pharmaceutica NV, priority 2006, dated 2011):
Several values for one entry are separate records, joined by “and”; a condition that tells them apart may be missing. Identical values can stand only once.

Columns and labels:
[1] = system: rabbits; details: 30 mg/kg; cited from earlier work
[2] = system: rabbits had severe hypercholesterolemia; details: rabbits with severe hypercholesterolemia; cited from earlier work
[3] = clinical studies; cited from earlier work
[4] = target: T1, CETP (Homo sapiens, UniProt P11597); assay: CETP in vitro assay (Amersham kit TRKQ7005; modified protocol in human plasma, [3H]CE-HDL transfer); format: biochemical; details: for % Inhibition @ 1 μM / inhibition at 1 µM: 1 μM compound; for inhibition at 1 µM: read-out: % Inhibition @ 1 μM; for IC50: from plots of % control versus compound concentration
T1 construct: from tissue; host or cells: human plasma from normal volunteers
T1 sequence (P11597 18-493): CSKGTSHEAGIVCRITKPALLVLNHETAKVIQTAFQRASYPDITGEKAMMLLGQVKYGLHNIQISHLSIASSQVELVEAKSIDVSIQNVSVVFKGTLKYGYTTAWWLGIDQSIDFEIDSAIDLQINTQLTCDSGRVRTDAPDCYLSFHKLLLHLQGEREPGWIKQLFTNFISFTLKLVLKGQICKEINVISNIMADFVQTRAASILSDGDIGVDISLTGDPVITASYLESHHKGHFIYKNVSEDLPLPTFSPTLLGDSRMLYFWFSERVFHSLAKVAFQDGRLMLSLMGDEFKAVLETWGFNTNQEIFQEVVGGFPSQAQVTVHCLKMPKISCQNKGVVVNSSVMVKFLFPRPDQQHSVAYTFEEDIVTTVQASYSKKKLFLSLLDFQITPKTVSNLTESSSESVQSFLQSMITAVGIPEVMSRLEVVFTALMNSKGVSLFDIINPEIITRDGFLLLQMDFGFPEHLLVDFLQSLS
Method in brief: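 IC50 values were derived by plotting % of vehicle control against compound concentration. Transfer was quantified by counting supernatant radioactivity after Dextralip/MgCl2 precipitation. Compound, human plasma and [3H]CE-HDL (about 25 μg/ml, as added) were incubated 4 h or more at 37 °C, with a 4 °C plate as the non-specific blank.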

[5] = system: cholesterol-fed hamsters; assay: CETP in vivo assay: lipid parameters in cholesterol-fed hamsters; details: plasma, mean ± SEM, n = 8
Procedure: To determine the in vivo efficacy of a test compound, hamsters were first fed a moderately high cholesterol diet (Research Diets, D5012801) for two weeks before commencing treatment. The animals were orally gavaged with the vehicle (10% solutol, 5% ethanol, 85% D5W) and test compound for 5 days with the last dose being administered 2 hrs before sacrifice. Plasma was obtained and lipid parameters were measured.

[6] = particularly in combination with Atorvastatin; cited from earlier work
[7] = 10 mg/kg oral gavage for 5 days
[8] = 30 mg/kg oral gavage for 5 days

## CCC(CC)CC1(C(=O)Nc2ccccc2SC(=O)C(C)C)CCCCC1 [JTT-705]
[1]
  CETP activity: inhibited CETP activity
  increased HDL-C: +90%
  reduced lesion size: −70%
  reduced non-HDL-C cholesterol: −50%
[2]
  lesion development: not efficacious in preventing lesion development
  plasma triglycerides: significant elevations of plasma triglycerides
[3]
  HDL-C: raise HDL-C
  LDL-C: modestly lower LDL-C
  triglyceride levels: not alter triglyceride levels

## O[C@@H](CN1c2cccc(-c3cccc(OC(F)(F)F)c3)c2CC[C@@H]1c1cccc(OC(F)(F)C(F)F)c1)C(F)(F)F [Compound 78, (S)-1,1,1-trifluoro-3-((R)-2-(3-(1,1,2,2-tetrafluoroethoxy)phenyl)-5-(3-(trifluoromethoxy)phenyl)-3,4-dihydroquinolin-1 (2H)-yl)propan-2-ol]
[4]
  % Inhibition @ 1 μM: 79%
  inhibition at 1 µM: 85%
  IC50: 0.034 µM and 0.044 µM
[5]; 3 mg/kg oral gavage for 5 days, last dose 2 hrs before sacrifice
  HDL-C: 96.2 ± 4.9 mg/dL
[5]; 3 mg/kg oral gavage for 5 days
  HDL-C/LDL-C: 3.1 ± 0.2
  LDL-C: 31.6 ± 1.9 mg/dL
  Total Cholesterol: 149.3 ± 7.7 mg/dL
  Triglycerides: 217.7 ± 18.1 mg/dL
[5]; [7]
  HDL-C: 117.9 ± 2.9 mg/dL
  HDL-C/LDL-C: 4.3 ± 0.3
  LDL-C: 28.1 ± 1.8 mg/dL
  Total Cholesterol: 178.5 ± 5.4 mg/dL
  Triglycerides: 325.6 ± 24.3 mg/dL
[5]; [8]
  HDL-C: 121.4 ± 2.5 mg/dL
  HDL-C/LDL-C: 4.6 ± 0.4
  LDL-C: 27.9 ± 2.5 mg/dL
  Total Cholesterol: 188.4 ± 9.2 mg/dL
  Triglycerides: 350.8 ± 10.9 mg/dL

## CCOC(=O)N1c2ccc(C(F)(F)F)cc2[C@@H](N(Cc2cc(C(F)(F)F)cc(C(F)(F)F)c2)C(=O)OC)C[C@H]1CC [Torcetrapib]
[6]
  results in Phase II trials: positive results in Phase II trials

## O=C(CN1CCOCC1)N1c2cccc(-c3cccc(OC(F)(F)F)c3)c2CCC1c1cccc(OC(F)(F)F)c1 (stereo not drawn) [Compound 88, 1-[2,5-Bis-(3-trifluoromethoxy-phenyl)-3,4-dihydro-2H-quinolin-1-yl]-2-morpholin-4-yl-ethanone]
[4]
  inhibition at 1 µM: 0%

## OC(CN1c2cccc(-c3cccc(OC(F)(F)F)c3)c2CCC1c1ccc(OC(F)(F)C(F)F)cc1)C(F)(F)F (stereo not drawn) [Compound 21, 1,1,1-Trifluoro-3-[2-[4-(1,1,2,2-tetrafluoro-ethoxy)-phenyl]-5-(3-trifluoromethoxy-phenyl)-3,4-dihydro-2H-quinolin-1-yl]-propan-2-ol]
[4]
  % Inhibition @ 1 μM: 5%

## C[C@@H](O)CN1c2cccc(-c3cccc(OC(F)(F)F)c3)c2CC[C@@H]1c1cccc(OC(F)(F)C(F)F)c1 [Compound 70, (αR,2R)-3,4-Dihydro-α-methyl-2-[3-(1,1,2,2-tetrafluoroethoxy)phenyl]-5-[3-(trifluoromethoxy)phenyl]-1(2H)-quinolineethanol]
[4]
  % Inhibition @ 1 μM: 69% and 59%
  inhibition at 1 µM: 61%
  IC50: 0.063 µM and 0.039 µM

## OC(CN1c2cccc(-c3cccc(OC(F)(F)F)c3)c2CCC1C1CCCCC1)C(F)(F)F (stereo not drawn) [Compound 37, 3-[2-Cyclohexyl-5-(3-trifluoromethoxy-phenyl)-3,4-dihydro-2H-quinolin-1-yl]-1,1,1-trifluoro-propan-2-ol]
[4]
  % Inhibition @ 1 μM: 11%

## N#Cc1cccc(C2CCc3c(-c4cccc(OC(F)(F)F)c4)cccc3N2CC(O)C(F)(F)F)c1 (stereo not drawn) [Compound 27, 3-[1-(3,3,3-Trifluoro-2-hydroxy-propyl)-5-(3-trifluoromethoxy-phenyl)-1,2,3,4-tetrahydro-quinolin-2-yl]-benzonitrile]
[4]
  % Inhibition @ 1 μM: 48% and 38%
  IC50: 0.41 µM
